# Experimental data reported in the supplement of paper PMC9663587.
# Compound: C1=CC2=C(C=CC(=C2)C=C3C(=O)NC(=NCC4=CC=CS4)S3)N=C1 [R0-3306]
# 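Note: breast cancer and non-malignant breast epithelial cell lines, Deep Dye Drop or Dye Drop imaging, nine half-log doses, GR normalized to time-zero plates and DMSO-only controls.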
row,Cell Line,"GR50, 72 h [µM]"
1,MDAMB361,5.8
2,MDAMB453,5.95
3,SUM185PE,> 10
4,SUM190PT,4.76
5,UACC812,5.09
6,UACC893,9.24

# Compound: C=CCn1c(=O)c2cnc(Nc3ccc(N4CCN(C)CC4)cc3)nc2n1-c1cccc(C(C)(C)O)n1 [AZD1775]
row,Cell Line,"GR50, 72 h [µM]"
1,CAL851,0.212
2,HCC1187,0.0228
3,HCC1954,1.58
4,MDAMB175VII,0.0486
5,MDAMB330,0.0535
6,MDAMB361,0.00493
7,MDAMB453,0.112
8,PDX1328,0.00554
9,SUM185PE,4.52
10,SUM190PT,0.0515
11,UACC812,3.03
12,UACC893,0.236

# Compound: CC(=O)Nc1cccc(-n2c(=O)n(C3CC3)c(=O)c3c(Nc4ccc(I)cc4F)n(C)c(=O)c(C)c32)c1
row,Cell Line,"GR50, 72 h [µM]"
1,CAL851,0.0132
2,HCC1187,> 1
3,HCC1428,> 1
4,HCC1500,0.142
5,HCC1954,0.0167
6,MDAMB157,0.111
7,MDAMB175VII,0.00195
8,MDAMB330,0.138
9,MDAMB361,> 1
10,MDAMB453,0.0339
11,PDX1328,> 1
12,SUM185PE,> 1
13,SUM190PT,> 1
14,UACC812,0.00179
15,UACC893,0.0212

# Compound: CCc1cnn2c(NCc3ccc[n+]([O-])c3)cc(N3CCCC[C@H]3CCO)nc12
row,Cell Line,"GR50, 72 h [µM]"
1,CAL851,0.00469
2,HCC1187,0.00577
3,HCC1428,0.0171
4,HCC1500,0.0138
5,HCC1954,0.0126
6,MDAMB157,0.0177
7,MDAMB175VII,0.0118
8,MDAMB330,0.0203
9,MDAMB361,0.0118
10,MDAMB453,0.0114
11,PDX1328,0.0148
12,SUM185PE,0.0261
13,SUM190PT,0.0215
14,UACC812,0.0303
15,UACC893,0.017

# Compound: Nc1cc(C(F)(F)F)c(-c2cc(N3CCOCC3)nc(N3CCOCC3)n2)cn1 [Buparlisib/NVP-BKM120]
row,Cell Line,"GR50, 72 h [µM]"
1,CAL851,0.343
2,HCC1187,0.619
3,HCC1428,0.692
4,HCC1500,0.211
5,HCC1954,0.523
6,MDAMB157,1.28
7,MDAMB175VII,0.102
8,MDAMB330,0.511
9,MDAMB361,0.218
10,MDAMB453,0.694
11,PDX1328,0.528
12,SUM185PE,0.659
13,SUM190PT,1.04
14,UACC812,0.0515
15,UACC893,0.271

# Compound: CC(=O)O[C@H]1C(=O)[C@@]2(C)[C@H]([C@H](OC(=O)c3ccccc3)[C@]3(O)C[C@H](OC(=O)[C@H](O)[C@@H](NC(=O)c4ccccc4)c4ccccc4)C(C)=C1C3(C)C)[C@]1(OC(C)=O)CO[C@@H]1C[C@@H]2O [Paclitaxel]
row,Cell Line,"GR50, 72 h [µM]"
1,CAL851,0.00273
2,HCC1187,0.000215
3,HCC1428,0.00862
4,HCC1500,0.00382
5,HCC1954,0.0025
6,MDAMB157,0.00205
7,MDAMB175VII,0.00295
8,MDAMB330,0.00423
9,MDAMB361,0.00311
10,MDAMB453,0.00247
11,PDX1328,0.00287
12,SUM185PE,0.00463
13,SUM190PT,0.000878
14,UACC812,0.00042
15,UACC893,0.00216

# Compound: CS(=O)(=O)N1CCN(Cc2cc3nc(-c4cccc5[nH]ncc45)nc(N4CCOCC4)c3s2)CC1 [Pictilisib/GDC0941]
row,Cell Line,"GR50, 72 h [µM]"
1,CAL851,0.647
2,HCC1187,0.571
3,HCC1428,5.87
4,HCC1500,2.26
5,HCC1954,0.944
6,MDAMB157,2.05
7,MDAMB175VII,0.345
8,MDAMB330,0.293
9,MDAMB361,0.0792
10,MDAMB453,0.455
11,PDX1328,0.878
12,SUM185PE,0.127
13,SUM190PT,3.1
14,UACC812,0.106
15,UACC893,0.682

# Compound: CCCCOc1c(C(=O)c2c(F)cc(C)cc2F)c[nH]c2nncc1-2
row,Cell Line,"GR50, 72 h [µM]"
1,CAL851,0.00814
2,HCC1954,< 0.001
3,MDAMB175VII,0.00153
4,MDAMB330,0.762
5,MDAMB453,0.811
6,PDX1328,> 10
7,SUM185PE,> 10
8,SUM190PT,0.0016
9,UACC812,< 0.001
10,UACC893,0.0897

# Compound: O=C(c1cc(Cc2n[nH]c(=O)c3ccccc23)ccc1F)N1CCN(C(=O)C2CC2)CC1 [Olaparib/AZD2281]
row,Cell Line,"GR50, 72 h [µM]"
1,CAL851,5.05
2,HCC1187,3.46
3,HCC1428,0.553
4,HCC1500,6.33
5,HCC1954,> 10
6,MDAMB157,5.39
7,MDAMB175VII,9.32
8,MDAMB330,9.31
9,MDAMB361,4.83
